One assay has as its system Gq-proteins. Description: [Ca2+]i in RGS2-GFP inducible HeLa cells. Format: cell-based, human. Conditions: histamine 100 μM, m-3M3FBS 25 μM. How it is done: (§1) Isolated neutrophils were preincubated with PTX (1 μg/ml) or vehicle for 90 min at 37° C. and stimulated with m-3M3FBS, FMLF, or ATP at concentrations of 25, 1, and 500 μM, respectively. Changes in the excitation ratios at 340 nm/380 nm were monitored. Data are presented as means ±S. E. M. of two independent experiments (A). cAMP levels were determined by a radio receptor assay. Prepared cells were treated with m-3M3FBS (25 μM) or histamine (100 μM) and then lysed with Tris-EDTA. After removing the supernatant, [ 3H] cAMP and protein were added, and the amount of [^3H] cAMP-protein complex was determined. The amount of unlabeled cAMP (in the sample) was then calculated by measuring the protein-bound radioactivity. Data are presented as means ±S. E. M. of two independent experiments (B). […] RGS2-GFP inducible HeLa cells were cultured for 48 h in the absence or in the presence of tetracycline and loaded with fura-2. Cells were treated with histamine (100 μM) or m-3M3FBS (25 μM), and changes in the 340 nm/380 nm ratios were monitored and converted to [Ca^2+]i values. The results shown are representative of three independent experiments (C).
pRevTRE vector containing the cDNA of rat RGS2-GFP was transfected into Hela Tet-off cells using Lipofectamine. Selection was performed in DMEM supplemented with 2 μg/ml of tetracycline and 500 μg/ml of hygromycin B. Two weeks later, several well-isolated colonies were picked out and analyzed by western blotting to determine the expression level of RGS2 in the absence of tetracycline. For these experiments, HeLa cells were cultured for 48 h in the absence or in the presence of tetracycline.
(§2) Freshly prepared human neutrophils were incubated in serum free RPMI 1640 medium with 3 μM of fura-2/AM at 37° C. for 30 min with continuous stirring. After washing with serum free RPMI 1640 medium, the cells were suspended in serum free RPMI containing 250 μM of sulfinpyrazone to prevent dye leakage. About 2×10^6 cells were suspended in Ca^2+ free Locke's solution (158.4 mM NaCl, 5.6 mM KCl, 1.2 mM MgCl2, 5 mM HEPES pH 7.3, 10 mM glucose, and 0.2 mM EGTA) for each measurement. Changes in the fluorescence ratio were measured at an emission wavelength of 500 nm for dual excitation wavelengths at 340 nm and 380 nm. The calibration of the fluorescence ratio versus [Ca^2+]i was performed as described by Grynkiewicz (Grynkiewicz et al., 1985).

The subject of the next assay is Gs-proteins. Description: Cyclic AMP generation (radio receptor assay). Conditions: human neutrophils; m-3M3FBS 25 μM, histamine 100 μM. In kind it is cell-based. How it is done:
as §1

Another assay has as its system human neutrophils. Description: [Ca2+]i measurement with fura-2 in neutrophils. Format: cell-based. Conditions: for effect on calcium signal induced by m-3M3FBS: pretreatment with 4 μM, m-3M3FBS 25 μM. How it is done: Fura-2-loaded neutrophils were stimulated with m-3M3FBS or o-3M3FBS at 25 μM in extracellular calcium containing 2 mM or extracellular free calcium conditions. The results shown are representative of three independent experiments (A). Prepared neutrophils were loaded with fura-2 and then stimulated with 25 μM of m-3M3FBS in the absence or in the presence of 4 μM of U-73122 or U-73343 (B). Changes in 340 nm/380 nm excitation ratio were monitored, and converted to [Ca^2+]i levels. Data are presented as means ±S. E. M. of three independent experiments.
as §2

The subject of assay [1] is PTX-sensitive Gi-proteins. Description: PTX sensitivity of [Ca2+]i increase in neutrophils. In kind it is cell-based, human. The following applies: fMLF 1 μM. How it is done:
Isolated neutrophils were preincubated with PTX (1 μg/ml) or vehicle for 90 min at 37° C. and stimulated with m-3M3FBS, FMLF, or ATP at concentrations of 25, 1, and 500 μM, respectively. Changes in the excitation ratios at 340 nm/380 nm were monitored. Data are presented as means ±S. E. M. of two independent experiments (A). cAMP levels were determined by a radio receptor assay. Prepared cells were treated with m-3M3FBS (25 μM) or histamine (100 μM) and then lysed with Tris-EDTA. After removing the supernatant, [ 3H] cAMP and protein were added, and the amount of [^3H] cAMP-protein complex was determined. The amount of unlabeled cAMP (in the sample) was then calculated by measuring the protein-bound radioactivity. Data are presented as means ±S. E. M. of two independent experiments (B). RGS2-GFP inducible HeLa cells were cultured for 48 h in the absence or in the presence of tetracycline, and the induction of RGS2-GFP was confirmed by Western blot analysis using anti-GFP antibody (C). RGS2-GFP inducible HeLa cells were cultured for 48 h in the absence or in the presence of tetracycline and loaded with fura-2. Cells were treated with histamine (100 μM) or m-3M3FBS (25 μM), and changes in the 340 nm/380 nm ratios were monitored and converted to [Ca^2+]i values. The results shown are representative of three independent experiments (C).
as §2

As to `NCCc1c[nH]cn1` [histamine, reference compound], in the assay on Gq-proteins (HeLa cells in the presence of tetracycline (RGS2 not induced)), the “[Ca2+]i increase” value is “caused [Ca^2+]i increases”. In addition, the “effect of RGS2 induction on the induced calcium response” value in the assay on Gq-proteins (HeLa cells overexpressing RGS2) was “completely blocked”. In addition, the “intracellular cAMP level” value with Gs-proteins is listed as “potently induce cAMP production”.
Regarding `COc1ccc2c(c1)CC[C@@H]1[C@@H]2CC[C@]2(C)[C@@H](NCCCCCCN3C(=O)CCC3=O)CC[C@@H]12` [U-73343, reference compound], in the assay on human neutrophils, the “effect on calcium signal induced by m-3M3FBS” value is “no effect”.
In the case of `COc1ccc2c(c1)CC[C@@H]1[C@@H]2CC[C@]2(C)[C@@H](NCCCCCCN3C(=O)C=CC3=O)CC[C@@H]12` [U-73122, reference compound], the “effect on m-3M3FBS-induced calcium signal” value with human neutrophils (preincubation in the presence of extracellular calcium, data not shown) is reported as “completely blocked”. Moreover, the “effect on calcium signal induced by m-3M3FBS” value with human neutrophils was “complete inhibition”.
Regarding fMLF, the “effect of PTX preincubation on the induced calcium increase” value in assay [1] (PTX 1 μg/ml for 90 min, m-3M3FBS 25 μM) is listed as “inhibited”. The “[Ca2+]i increase” value in assay [1] (neutrophils, without PTX) was “induced [Ca^2+]i increase”.

These data come from patent publication US20040220268A1, “Compound that directly stimulates phospholipase C activity” (priority 2003, published 2004).
